Data from patent publication US20260356856A1, “KRAS G12S AND G12C INHIBITORS” (MIRATI THERAPEUTICS, INC., priority 2023, published 2026).

Assays:
KRas G12C = biological target: T1, KRas G12C (Homo sapiens, UniProt P01116, G12C); assay: KRas binding assay, TR-FRET displacement of Cy5 labelled tracer; conditions: 60-minute incubation at room temperature, 1% DMSO, pH 7.5
T1 construct: Biotinylated KRas (corresponding to amino acids 1-169, produced at Accelegan Inc.); biotin (biotinylated); purchased Accelegan Inc
T1 sequence (P01116 1-169 isoform P01116-2 G12C): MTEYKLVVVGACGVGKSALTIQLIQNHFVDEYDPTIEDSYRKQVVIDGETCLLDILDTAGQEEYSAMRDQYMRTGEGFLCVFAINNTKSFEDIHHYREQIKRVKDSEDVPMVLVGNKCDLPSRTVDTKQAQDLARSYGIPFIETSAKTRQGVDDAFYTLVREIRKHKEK
How it was run: (§1)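 Compound competes with tracer for biotin-labelled KRas (amino acids 1-169) bound to terbium-streptavidin. Incubation runs 60 minutes at room temperature, final DMSO 1%. IC50 values derive from a 4-parameter fit.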

KRas G12S = biological target: T2, KRas G12S (Homo sapiens, UniProt P01116, G12S); assay: as above; conditions: 60-minute incubation at room temperature, 1% DMSO, pH 7.5
T2 construct: Biotinylated KRas (corresponding to amino acids 1-169, produced at Accelegan Inc.); biotin (biotinylated); purchased Accelegan Inc
T2 sequence (P01116 1-169 isoform P01116-2 G12S): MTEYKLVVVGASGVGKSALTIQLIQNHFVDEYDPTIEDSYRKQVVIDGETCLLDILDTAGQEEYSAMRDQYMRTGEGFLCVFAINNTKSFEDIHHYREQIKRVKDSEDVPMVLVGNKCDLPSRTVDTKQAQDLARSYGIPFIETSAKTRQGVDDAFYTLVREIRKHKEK
How it was run: as §1

KRas WT = biological target: T3, KRas WT (Homo sapiens, UniProt P01116); assay: as above; conditions: 60-minute incubation at room temperature, 1% DMSO, pH 7.5
T3 construct: Biotinylated KRas (corresponding to amino acids 1-169, produced at Accelegan Inc.); biotin (biotinylated); purchased Accelegan Inc
T3 sequence (P01116 1-169 isoform P01116-2): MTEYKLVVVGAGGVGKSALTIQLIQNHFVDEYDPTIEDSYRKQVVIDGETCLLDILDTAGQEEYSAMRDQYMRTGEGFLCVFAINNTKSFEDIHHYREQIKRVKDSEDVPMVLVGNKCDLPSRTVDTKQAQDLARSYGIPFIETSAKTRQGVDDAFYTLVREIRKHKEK
How it was run: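 Tb-streptavidin captured biotinylated KRas (1-169) in HEPES 50 mM, DTT 1 mM, MgCl2 5 mM, Tween-20 0.005% (pH 7.5), alongside tracer and compound at 1% final DMSO. One hour at RT, then read; IC50 from 4-parameter POC fit.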

[1] = biological target: T4, KRas-mediated phosphorylation of ERK in MKN1 cells (Homo sapiens, UniProt P01116); assay: Inhibition of KRas-mediated phosphorylation of ERK (HTRF), MKN1 cells; format: cell-based; conditions: MKN1 cells (KRas WT); HTRF pERK; 3 h incubation
T4 construct: pERK HTRF read-out
T4 sequence (P01116 1-188 isoform P01116-2): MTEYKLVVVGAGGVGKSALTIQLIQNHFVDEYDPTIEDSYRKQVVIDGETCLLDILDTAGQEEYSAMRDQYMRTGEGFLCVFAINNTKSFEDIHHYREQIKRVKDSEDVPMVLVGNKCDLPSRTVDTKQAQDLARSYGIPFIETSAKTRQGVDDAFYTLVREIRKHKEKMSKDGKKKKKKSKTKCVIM
Procedure: Inhibition of KRas Phosphorylation of ERK (HTRF) by Exemplary Compounds of Formula (Ia) or (Ib)
Cisbio HTRF Advanced pERK Assay Catalog #64AERPEH • Cells: MKN1, PSN1 • Procedure: • 1. Day 1: Seed 6,000 cells/well −25 μl/well in 384-well white solid bottom plate; RPM1_10% FBS. Incubate overnight at 37 °C/5% CO2. • 2.

[2] = biological target: T5, KRas-mediated phosphorylation of ERK in A549 cells (Homo sapiens, UniProt P01116, G12S); assay: Inhibition of KRas-mediated phosphorylation of ERK (HTRF), A549 cells; format: cell-based; conditions: HTRF pERK, 3 h incubation
T5 construct: pERK HTRF read-out
T5 sequence (P01116 1-188 isoform P01116-2 G12S): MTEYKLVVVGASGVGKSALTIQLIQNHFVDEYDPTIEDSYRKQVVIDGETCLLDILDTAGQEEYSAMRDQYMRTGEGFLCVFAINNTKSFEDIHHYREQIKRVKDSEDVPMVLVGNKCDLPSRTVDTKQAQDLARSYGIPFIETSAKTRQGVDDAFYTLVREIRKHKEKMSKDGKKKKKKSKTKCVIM

Structure (SMILES) | IC50 (KRas G12C) [nM] | IC50 (KRas G12S) [nM] | IC50 (KRas WT) [nM] | IC50 [1] [nM] | IC50 [2] [nM]
CCc1c(F)ccc2cc(O)cc(-c3ncc4c(N5CCC(C(=O)N(C)C(=O)C(C)C)CC5)nc(OC[C@@]56CCCN5C[C@H](F)C6)nc4c3F)c12 [Example 166, 1-(7-(8-ethyl-7-fluoro-3-hydroxynaphthalen-1-yl)-8-fluoro-2-(((2R,7aS)-2-fluorotetrahydro-1H-pyrrolizin-7a(5H)-yl)methoxy)pyrido[4,3-d]pyrimidin-4-yl)-N-isobutyryl-N-methylpiperidine-4-carboxamide] | 310 | 203 | 229 | 622 | 1780
C#CCC1(C(=O)n2ccc(C)n2)CCN(c2nc(OC[C@@]34CCCN3C[C@H](F)C4)nc3c(F)c(-c4cc(O)cc5ccc(F)c(CC)c45)ncc23)C1 (stereo partly drawn) [Example 108, (1-(7-(8-ethyl-7-fluoro-3-hydroxynaphthalen-1-yl)-8-fluoro-2-(((2R,7aS)-2-fluorotetrahydro-1H-pyrrolizin-7a(5H)-yl)methoxy)pyrido[4,3-d]pyrimidin-4-yl)-3-(prop-2-yn-1-yl)pyrrolidin-3-yl)(3-methyl-1H-pyrazol-1-yl)methanone] | 339 | 1320 | 1040 | > 10000 | 2000
CCc1c(F)ccc2cc(O)cc(N3CCc4c(nc(OC[C@@]56CCCN5C[C@H](F)C6)nc4N4CCCC(C(=O)n5ccc(C)n5)CCC4)C3)c12 [Example 149, (1-(7-(8-ethyl-7-fluoro-3-hydroxynaphthalen-1-yl)-2-(((2R,7aS)-2-fluorotetrahydro-1H-pyrrolizin-7a(5H)-yl)methoxy)-5,6,7,8-tetrahydropyrido[3,4-d]pyrimidin-4-yl)azocan-5-yl)(3-methyl-1H-pyrazol-1-yl)methanone] | 3740 | 1470 | 1310 | 6530 | > 10000
Cc1ccn(C(=O)C2CCCCN(c3nc(OC[C@@]45CCCN4C[C@H](F)C5)nc4c(F)c(-c5ccc(F)c6sc(N)c(C#N)c56)c(Cl)cc34)C2)n1 (stereo partly drawn) [Example 136, 2-amino-4-(6-chloro-8-fluoro-2-(((2R,7aS)-2-fluorotetrahydro-1H-pyrrolizin-7a(5H)-yl)methoxy)-4-(3-(3-methyl-1H-pyrazole-1-carbonyl)azepan-1-yl)quinazolin-7-yl)-7-fluorobenzo[b]thiophene-3-carbonitrile] | 16 | 17 | 23 | 13 | 249
Cc1ccn(C(=O)C2CCCN(c3nc(OC[C@@]45CCCN4C[C@H](F)C5)nc4c(F)c(-c5ccc(F)c6sc(N)c(C#N)c56)c(Cl)cc34)CCC2)n1 [Example 134, 2-amino-4-(6-chloro-8-fluoro-2-(((2R,7aS)-2-fluorotetrahydro-1H-pyrrolizin-7a(5H)-yl)methoxy)-4-(5-(3-methyl-1H-pyrazole-1-carbonyl)azocan-1-yl)quinazolin-7-yl)-7-fluorobenzo[b]thiophene-3-carbonitrile] | 59 | 46 | 21 | 187 | 1840
Cc1ccn(C(=O)C2CCN(c3nc(OC[C@@]45CCCN4C/C(=C\F)C5)nc4c(F)c(-c5ccc(F)c6sc(N)c(C#N)c56)c(Cl)cc34)CC2)n1 [Example 135, 2-amino-4-(6-chloro-8-fluoro-2-(((S,Z)-2-(fluoromethylene)tetrahydro-1H-pyrrolizin-7a(5H)-yl)methoxy)-4-(4-(3-methyl-1H-pyrazole-1-carbonyl)piperidin-1-yl)quinazolin-7-yl)-7-fluorobenzo[b]thiophene-3-carbonitrile] | 9 | 6 | 11 | 83 | 6
CCc1c(F)ccc2cc(O)cc(-c3ncc4c(N5CCC(OC)(C(=O)n6ccc(C)n6)CC5)nc(OC[C@@]56CCCN5C[C@H](F)C6)nc4c3F)c12 [Example 88, (1-(7-(8-ethyl-7-fluoro-3-hydroxynaphthalen-1-yl)-8-fluoro-2-(((2R,7aS)-2-fluorotetrahydro-1H-pyrrolizin-7a(5H)-yl)methoxy)pyrido[4,3-d]pyrimidin-4-yl)-4-methoxypiperidin-4-yl)(3-methyl-1H-pyrazol-1-yl)methanone] | 116 | 1060 | 1760 | 8070 | 589
CCc1c(F)ccc2cc(O)cc(-c3ncc4c(N5C[C@H]6C[C@@H](C5)[C@H](C(=O)n5ccc(C)n5)C6)nc(OC[C@@]56CCCN5C[C@H](F)C6)nc4c3F)c12 [Example 100, ((1S,5R,6R)-3-(7-(8-ethyl-7-fluoro-3-hydroxynaphthalen-1-yl)-8-fluoro-2-(((2R,7aS)-2-fluorotetrahydro-1H-pyrrolizin-7a(5H)-yl)methoxy)pyrido[4,3-d]pyrimidin-4-yl)-3-azabicyclo[3.2.1]octan-6-yl)(3-methyl-1H-pyrazol-1-yl)methanone] | 4840 | 4720 | 7690 | > 10000 | > 10000
CCc1c(F)ccc2cc(O)cc(-c3ncc4c(N5C[C@H]6CC(C(=O)n7ccc(C)n7)C[C@@H]6C5)nc(OC[C@@]56CCCN5C[C@H](F)C6)nc4c3F)c12 [Example 115, ((3aS,6aS)-2-(7-(8-ethyl-7-fluoro-3-hydroxynaphthalen-1-yl)-8-fluoro-2-(((2R,7aS)-2-fluorotetrahydro-1H-pyrrolizin-7a(5H)-yl)methoxy)pyrido[4,3-d]pyrimidin-4-yl)octahydrocyclopenta[c]pyrrol-5-yl)(3-methyl-1H-pyrazol-1-yl)methanone] | 4120 | 1800 | 260 | 2670 | > 10000
Cc1ccn(C(=O)[C@H]2CCN(c3nc(OC[C@@]45CCCN4C[C@H](F)C5)nc4c(F)c(-c5ccc(F)c6sc(N)c(C#N)c56)c(Cl)cc34)C[C@H]2C)n1 [Example 185, 2-amino-4-(6-chloro-8-fluoro-2-(((2R,7aS)-2-fluorotetrahydro-1H-pyrrolizin-7a(5H)-yl)methoxy)-4-((cis)-3-methyl-4-(3-methyl-1H-pyrazole-1-carbonyl)piperidin-1-yl)quinazolin-7-yl)-7-fluorobenzo[b]thiophene-3-carbonitrile] | 18 | 12 | 6 | 65 | 250
CCc1c(F)ccc2cc(O)cc(-c3ncc4c(NCC56CC(C(=O)n7ccc(C)n7)(C5)C6)nc(OC[C@@]56CCCN5C[C@H](F)C6)nc4c3F)c12 [Example 92, (3-(((7-(8-ethyl-7-fluoro-3-hydroxynaphthalen-1-yl)-8-fluoro-2-(((2R,7aS)-2-fluorotetrahydro-1H-pyrrolizin-7a(5H)-yl)methoxy)pyrido[4,3-d]pyrimidin-4-yl)amino)methyl)bicyclo[1.1.1]pentan-1-yl)(3-methyl-1H-pyrazol-1-yl)methanone] | 3 | 17 | 59 | > 10000 | 1380
C=CC1(C(=O)n2ccc(C)n2)CCN(c2nc(OC[C@@]34CCCN3C[C@H](F)C4)nc3c(F)c(-c4cc(O)cc5ccc(F)c(CC)c45)ncc23)CC1 [Example 102, (1-(7-(8-ethyl-7-fluoro-3-hydroxynaphthalen-1-yl)-8-fluoro-2-(((2R,7aS)-2-fluorotetrahydro-1H-pyrrolizin-7a(5H)-yl)methoxy)pyrido[4,3-d]pyrimidin-4-yl)-4-vinylpiperidin-4-yl)(3-methyl-1H-pyrazol-1-yl)methanone] | 252 | 2140 | 5920 | > 10000 | 1930
CCc1c(F)ccc2cc(O)cc(-c3ncc4c(N5CCCC(C(=O)n6ccc(C)n6)CC5)nc(OC[C@@H]5CCCN5C)nc4c3F)c12 (stereo partly drawn) [Example 168, (1-(7-(8-ethyl-7-fluoro-3-hydroxynaphthalen-1-yl)-8-fluoro-2-(((S)-1-methylpyrrolidin-2-yl)methoxy)pyrido[4,3-d]pyrimidin-4-yl)azepan-4-yl)(3-methyl-1H-pyrazol-1-yl)methanone] | 384 | 72 | 1380 | 8690 | 245
CCc1c(F)ccc2cc(O)cc(-c3ncc4c(NC[C@@H]5C[C@H]5C(=O)n5ccc(C)n5)nc(OC[C@@]56CCCN5C[C@H](F)C6)nc4c3F)c12 [Example 112, ((1R,2R)-2-(((7-(8-ethyl-7-fluoro-3-hydroxynaphthalen-1-yl)-8-fluoro-2-(((2R,7aS)-2-fluorotetrahydro-1H-pyrrolizin-7a(5H)-yl)methoxy)pyrido[4,3-d]pyrimidin-4-yl)amino)methyl)cyclopropyl)(3-methyl-1H-pyrazol-1-yl)methanone] | 11 | 9 | 19 | 80 | 15
